Reference: patent US9241993B2, “Inhibitors of branched-chain-aminotransferase-1 (BCAT1) for the treatment of brain tumors” (Deutsches Krebsforschungszentrum, priority 2011, dated 2016)

Key:
Format in all cases: cell-based, human
U-87MG cells = assay: 1H-NMR spectroscopy of cell extracts, intracellular BCAA levels; conditions: 20 mM gabapentin for 20 hours vs control
Method: (§1) (i) Treatment with dimethyl-α-ketoglutarate and Gabapentin 5×10^4 cells/well were seeded in 24-well plates in a total volume of 500 μl cell culture medium. The medium was removed 16 hours after seeding the cells, and replaced with 500 μl medium containing 5 mM or 10 mM dimethyl-α-ketoglutarate (Dimethyl 2-oxoglutarate; Sigma-Aldrich) or 5 mM, 10 mM or 20 mM gabapentin ([…]; Sigma-Aldrich). Corresponding volumes of 200 mM HEPES buffer (pH 7.4) were added to the respective control wells.
(§2) Cells were harvested by trypsinization, washed once with ice-cold PBS, and the cell pellet was frozen at −80° C. Typically 1×10^8 harvested cells were subjected to perchloric acid extraction followed by KOH neutralization according to published protocols^50. Briefly, 2 mL of ice-cold 1 N HClO4 were added to a frozen pellet of harvested cells. The pellet was disrupted using a Teflon pestle and a glass homogeniser. 1 mL of ice-cold water was added to the lysate, vortexed for 90 s and centrifuged at 10000×g for 10 min at 4° C. The pellet was re-extracted and the supernatants were combined. The extract was neutralised with KOH and the pH was adjusted to 6.5-7.0 Precipitated KClO4 was pelleted at 25000×g for 20 min and the supernatant was lyophilised.
(§3) The lyophilised extract residues were dissolved in 0.5 ml of a D2O buffer (99.9% D) containing 30 mM sodium phosphate and 0.1 mM sodium azide (pH 7.02). For quantitative analysis a reference capillary (1.5 mm OD, 0.99 mm ID) was filled with a solution of 11 mM trimethylsilyl-2,2,3,3-tetradeuteropropanoic acid (TSP, sodium salt) in the D2O buffer described above. Subsequently, the capillary was sealed in the flame of a Bunsen burner. A calibration solution was prepared by placing weighed amounts of glucose and citric acid in the D2O buffer to give the calculated concentrations of 10.49 mM glucose and 4.95 […]. ^1H-NMR spectra of the calibration solution+capillary were acquired at 600 MHz (Avance AV-600, Bruker BioSpin GmbH) using a standard 5-mm NMR tube and a triple-resonance inverse probe under the same conditions to be used for the extracts (20° C., presaturation of residual HDO signal, repetition time TR=7 s, 30° flip angle). […] Cell extracts were measured with the calibrated reference capillary inserted (512 transients in 1 hour), and the ^1H-NMR signals for the branched-chain amino acids, various metabolites, and the TSP reference were integrated. The TSP integral was defined as 4.60 mM so that the metabolite signal integrals gave directly the metabolite concentrations in mM (μmol/ml) for the 0.5 ml volumes used.

U-373MG cells = assay: as above; conditions: 20 mM gabapentin for 20 hours vs control
Method: as §1, §2, §3

glioma cells = assay: Glutamate quantification in supernatant of gabapentin-treated cells; conditions: 20 mM, 6 and 12 hours after start of treatment
Method: as §1
Glutamate concentration in the supernatant of cells treated with gabapentin was determined using the glutamine/glutamate determination Kit (GLN-1; Sigma-Aldrich) according to the manufacturer's instructions. The reaction volumes were scaled down to 100 μl total volume and absorbance was measured in triplicate in a microplate (Corning° 96 Well Clear Flat Bottom UV-Transparent Microplate) using a Tecan Infinite M200 plate reader (Tecan, Austria). Data were normalised to the number of cells per well.

glioma cell lines = assay: Cell-cycle analysis, G1 phase; conditions: gabapentin treatment, 20 hours
Method: (§4) Cell-cycle analysis was performed 20 hours after treatment with gabapentin and 6 days after lentiviral transduction. Nicoletti buffer (0.1% sodium citrate, pH7.4, 0.05% Triton X-100, 50 μg propidium iodide) was added to the wells containing both dead and living cells. After 4 hours in the dark at 4° C., DNA content was analysed by flow cytometry using FACS Canto II (BD Biosciences, San Jose, Calif., USA). FACS Diva software was used to quantify the distribution of cells in each cell-cycle phase: sub-G1 (dead cells), G1, S, and G2/M. For investigation of apoptotic activity after lentivira knockdown NCH421k cells were incubated with annexin V-P (Phycoerythrin) and 7-AAD (7-aminoactinomycin D, BD Biosciences) for 15 minutes in the dark, immediately followed by flow cytometry.

[1] = test system: glioblastoma cell lines U87-MG, HS683 and U373-MG; assay: Click-iT EdU cell proliferation assay after gabapentin treatment; conditions: concentration-dependent
Method: as §1
To assess the proliferation of glioma cells after treatment with gabapentin or after lentiviral knockdown, the Click-iT® EdU cell proliferation assay (Invitrogen, Karlsruhe, Germany) was used following the manufacturer's instructions. The cells were incubated with 10 μM of the nucleoside analog EdU (5-ethynyl-2′deoxyuridine) for 16 hours. Quantification of cells that incorporated EdU was performed using FACS Canto II (BD Biosciences).
The human glioblastoma cell lines U87-MG (HTB-14), HS683 (HTB-138) and U373-MG (HTB-17; LGC Standards, Teddington TW11 0LY U.K.) were cultured in Dulbecco's Minimal Essential Medium supplemented with 10% fetal calf serum and 1% penicillin/streptomycin-mix. 5×10^4 cells/well were seeded in 24 well plates in a total volume of 500 μl cell culture medium. […]

U373-MG = assay: Cell-cycle analysis (propidium iodide, flow cytometry), sub-G1 fraction; conditions: 20 mM, 20 hours after treatment
Method: as §4

U87-MG = assay: as above; conditions: 20 mM, 20 hours after treatment
Method: as §4

HS683 = assay: as above; conditions: HS683, 20 mM, 20 hours after treatment
Method: as §4

BCAT1 expression = assay: BCAT1 RNA and protein expression (qRT-PCR, Western blot) in glioma cell lines; conditions: increasing concentration of dimethyl-alpha-KG in the culture medium (5 mM or 10 mM)
Method: Total RNA was extracted using the AllPrep DNA/RNA/Protein Mini Kit (Qiagen) according to the manufacturer's instructions. FirstChoice® Human Brain Reference Total RNA from Ambion served as normal brain RNA pool (n=23 donors). Total RNA (500 ng) was reverse-transcribed using random primers and superscript II (Invitrogen, Karlsruhe, Germany) according to the manufacturer's instructions. Each complimentary DNA sample was analysed in triplicate with the Applied Biosystems Prism 7900HT Fast Real-Time PCR System (Applied Biosystems, Foster City, Calif., USA) using Absolute SYBR Green ROX Mix (ABgene, Epsom, UK). The relative amount of specific mRNA was normalised to ARF, B2M and TBP.
All experiments involving the use of human tissues are carries out in line with the guidelines of the institutional review board of the Medical Faculty at Heinrich Heine University Dusseldorf. Fresh frozen human tumor tissue samples and a non-neoplastic brain tissue sample were lysed in guanidine isothiocyanate solution (4M) using an ULTRA-TURRAX (IKA, Staufen, Germany) and subjected to CsCl-ultracentrifugation. […]
Infection of glioma cells with virus at an M.O.I. of 2 was carried out in the presence of 8 μg/ml of polybrene (Chemicon, Billerica, Mass., USA). […] Quantification of BCAT1 and IDH1 knockdown was assessed by quantitative real-time PCR and Western blot. […]

Structure (SMILES)	increase of isoleucine (Ile) level, factor (U-87MG cells)	increase of leucine (Leu) level, factor (U-87MG cells)	increase of valine (Val) level, factor (U-87MG cells)	increase of isoleucine (Ile) level, factor (U-373MG cells)	increase of leucine (Leu) level, factor (U-373MG cells)	increase of valine (Val) level, factor (U-373MG cells)	Glutamate release (glioma cells)	cell cycle effect (fraction of cells in G1-phase) (glioma cell lines)	reduction of cell proliferation ([1]; 5, 10 and 20 mM, all cell lines, vs mock treated cells (Example 2))	reduction of proliferation, estimated based on EdU-incorporation ([1]; 20 hours (Example 9, FIG. 6a))	Average sub-G1 (U373-MG) [%]	Average sub-G1 (U87-MG) [%]	Average sub-G1 (HS683) [%]	BCAT1 expression (BCAT1 expression)
NCC1(CC(=O)O)CCCCC1 [Gabapentin, 1-(aminomethyl) cyclohexaneacetic acid]	1.19	1.38	1.09	2.32	2.18	1.83	significantly reduced	partial G1-arrest	20-55%	up to 56%	2.8	2.4	10.1	
COC(=O)CCC(=O)C(=O)OC [dimethyl-alpha-KG, Dimethyl 2-oxoglutarate]														upregulated
